Assay results taken from patent US20100113472A1, “COMPOUNDS FOR THE TREATMENT OF OSTEOPOROSIS AND CANCERS” (ChemoCentryx, Inc., priority 2008, published 2010).

How the values were obtained:
[1] = tested on: Rat Model of Collagen Induced Arthritis; assay: Rat model of collagen induced arthritis; type: in vivo; conditions: female Lewis rats; 150 mg/kg oral, twice daily, day 9 to day 17
Protocol: A 17 day developing type II collagen arthritis study was conducted to evaluate the effects of a compound of interest on arthritis induced clinical ankle swelling. Rat collagen arthritis is an experimental model of polyarthritis that has been widely used for preclinical testing of numerous anti-arthritic agents (see Trentham, et al., J. Exp. Med. 146(3):857-868 (1977), Bendele, et al., Toxicologic Pathol. 27:134-142 (1999), Bendele, et al., Arthritis Rheum. 42:498-506 (1999)). The hallmarks of this model are reliable onset and progression of robust, easily measurable polyarticular inflammation, marked cartilage destruction in association with pannus formation and mild to moderate bone resorption and periosteal bone proliferation.
To measure the efficacy of CCR1 antagonists on the development of collagen induced arthritis in rats, compound 1.016 was evaluated in groups of 20 female Lewis rats. Animals were injected with 300 μl of Freund's Incomplete Adjuvant (Difco, Detroit, Mich.) containing 2 mg/ml bovine type II collagen (Elastin Products, Owensville, Mo.) at the base of the tail and 2 sites on the hack on days 0 and 6. Dosing by oral route (150 mg/kg; oral, twice daily) was initiated on day 9 of established disease (day 0 of arthritis) and continued through day 17 (day 7 of arthritis). On arthritis day 7, animals were euthanized for tissue collection. Hind paws were transected at the level of the medial and lateral malleolus, weighed and placed in formalin for microscopy. Osteoclasts were counted in 5, 400× magnification fields in ankle and knee of each joint and the mean number for the joint determined. Collagen arthritic ankles are also given scores of 0-5 (0 indicating normal and 5 indicating severe) for bone resorption according to established criteria.

[2] = pharmacokinetic tests conducted in animals; type: in vivo; conditions: compared with related compounds of U.S. Publication No. 2007/0010524A1
[3] = tested on: Rabbit Model of Destructive Joint Inflammation; assay: Rabbit model of destructive joint inflammation (rabbit LPS study); type: in vivo; conditions: oral, 2 h before and 4 h after intra-articular LPS (10 ng); lavage 16 h after LPS
Protocol: A rabbit LPS study was conducted essentially as described in Podolin, et al. J. Immunol. 169(11):6435-6444 (2002). Female New Zealand rabbits (approximately 2 kilograms) were treated intra-articularly in both knees with LPS (10 ng). The compound of interest, for example 1.016, (formulated in 1% methocel) or vehicle (1% methocel) was dosed orally at a 5 ml/kg dose volume at two times (2 hours before the intra-articular LPS injection and 4 hours after the intra-articular LPS injection). Sixteen hours after the LPS injection, knees were lavaged and cells counts were performed. Beneficial effects of treatment were determined by reduction in the number of inflammatory cells recruited to the inflamed synovial fluid of the knee joints.

[4] = tested on: human peripheral blood mononuclear cells (PBMC) differentiating into osteoclasts; assay: Inhibition of formation of osteoclasts in vitro; type: cell-based; conditions: Osteoclast, 504 h, 100 nM, M-CSF and RANKL 50 ng/ml each, day 21, over the untreated control, read-out: inhibition of osteoclast formation (TRAP+ multinuclear cells)
Protocol: PBMC were prepared by layering human whole blood over a Ficoll ague plus (Amersham) gradient and centrifuging 45 minutes at 400 g. The interface of white cells is removed and washed twice with PBS, and placed in culture in RPMI with 10% FBS.
CCR1 is expressed on both osteoclast precursor cells and mature osteoclasts and modulates osteoclast formation and maturation. To evaluate the ability of the 1.016 compound to block osteoclast formation in vitro, human peripheral blood mononuclear cells (PBMC) were cultured in the presence of M-CSF (50 ng/ml) and RANKL (50 ng/ml), which induces the monocyte subpopulation to differentiate into giant multinucleated osteoclasts over 21 days. Compound 1.016 was added at a concentration of 100 nM to the culture media on day one and the compound/medium was changed twice weekly. On day 21, cells were fixed and stained for tartrate-resistant acid phosphatase (TRAP) (acid phosphatase leukocyte staining kit, Sigma, Mo.) and TRAP^+ multinuclear (3 or more nuclei) cells were quantified by light microscopy. Osteoclast formation in the presence of 1.016 was inhibited by ˜40% over the untreated control.

In the case of COc1cc(N2CCN(C(=O)Cn3nc(-c4ncc[nH]4)c4cccnc43)CC2)ccc1Cl [compound 1.016, 1-[4-(4-Chloro-3-methoxy-phenyl)-piperazin-1-yl]-2-[3-(1H-imidazol-2-yl)-pyrazolo[3,4-b]pyridin-1-yl]-ethanone], the “bone resorption (score 0-5)” value [1] was “reduction in bone resorption”, the “clinical changes associated with established type II collagen arthritis” value [1] was “effectively inhibited” and the “joint swelling assessed by caliper measurements” value [1] was “reduction in joint swelling”. The “osteoclasts in ankle and knee (histopathology)” value [1] was “reduction of osteoclasts”, the AUC [2] was “increased” and the Cmax [2] was “increased”. The oral bioavailability [2] was “improved”, the “recruited inflammatory cells in synovial fluid of the knee joints” value [3] was “significant reduction” and the inhibition at 0.1 µM [4] was roughly 40%.
